Results: paper PMC2688476, “Low affinity glucocorticoid binding site ligands as potential anti-fibrogenics” (Comparative Hepatology, 2009)

Key:
CYP3A1/3A23 = assay: Screening for PXR activators in rat hepatocytes via CYP3A induction (Western blot); format: cell-based; details: rat
[1] = Pilot toxicity study in adult male rats; format: in vivo, rat; details: 3 days at up to 100 mg/kg body weight i.p.; 24 hours after final treatment
Method: Since there was no information in the literature regarding any potential adverse effects of 4A3COOHmethyl administration, a pilot toxicity study was initially undertaken, in which adult male rats were administered 4A3COOHmethyl for 3 days at up to 100 mg/kg body weight by i.p. injection.

human HSCs = assay: Human HSC trans-differentiation/proliferation (confluence, α-sma); format: cell-based; details: confluence at day 12
Method: (§1) Figure 5 Screening for inhibitors of trans-differentiation in rat and human HSCs – Part 1. Rat HSCs were isolated and cultured for 2 days (T0) whereupon cells were treated with the indicated compound as outlined in methods section. After 9 days, cells were analyzed by Western blotting for α-smooth muscle actin (α-sma). Each lane contains 10 μg total protein/lane, results typical of at least 3 separate experiments (a). Human HSCs were treated with the indicated compound and confluence determined in randomly selected fields. Data are the mean and standard deviation confluence at day 12 of 3 separate treatment dishes from the same donor, typical of at least 3 separate donors (b).
Figure 6 Screening for inhibitors of trans-differentiation in rat and human HSCs – Part 2. Photomicrographs of human HSCs at day 12 of culture with the indicated treatment (a); levels of expression of α-smooth muscle actin (α-sma) (b) and levels of expression of fibrogenic marker mRNA transcripts in human HSCs after treatment selected compounds for 19 days. Data are the mean and standard deviation relative transcript level from 3 separate treatments on cells from the same donor, typical of at least 3 separate donors (c).
(§2) HSCs were isolated from rats (250–300 g body weight, Harlan, UK) by sequential pronase/collagenase perfusion of the liver followed by density gradient centrifugation and elutriation as previously outlined. Human HSCs were isolated by an essentially similar procedure using discarded tissue from patients undergoing a hepatectomy with patient consent and ethical approval by the Grampian Regional Ethical Committee. HSCs were seeded onto plastic culture dishes and cultured in Dulbecco's modified Eagle Medium (DMEM) containing 4.5 g/l of glucose and supplemented with 5% or 16% (v/v) fetal calf serum (for rat or human respectively), […] penicillin, 80 μg/ml streptomycin and 32 μg/ml gentamycin. Additional treatments were made by addition of compounds in an ethanol vehicle (stock solutions at 1000× final concentration). Ethanol at 0.1% (v/v) acted as control. Frequency of treatment (3 treatments per week/2 medium changes per week), as previously described.

human myofibroblasts = assay: Fibrogenic marker mRNA transcripts (TGFβ, TIMP1, collagen 1A1) in human myofibroblasts, qRT-PCR; format: cell-based; details: treatment for 19 days
Text: Quantitative transcript expression was examined after reverse transcription (using a Taqman reverse transcription kit (Applied Biosystems)) using a PE Applied Biosystems ABI7700 and PE Applied Biosystems Gene Expression Assay™, incorporating sequence-specific forward, reverse and fluorescently labelled probes (see Table 2).

[2] = test system: rat CCl4 model of liver fibrosis; assay: Rat CCl4 model of liver fibrosis; format: in vivo; details: 20 mg/kg i.p. weekly, 8 weeks CCl4
Method: To examine the effects of 4A3COOHmethyl on fibrosis, adult male rats were treated with 20 mg/kg body weight by i.p. injection every week during an 8 week twice weekly treatment with CCl4, to generate liver fibrosis. A reduced dose of 20 mg/kg body weight was chosen because the compound was to be administered to rats with compromised liver function. To avoid potential interactions with CCl4, toxicity (i.e., reductions in CCl4 hepatotoxicity that could be misinterpreted as anti-fibrogenic effects), 4A3COOHmethyl was not administered within a 48 hour period of CCl4 administration. Previous work has established that a similar dose of PCN – using the same dosing regimen – is sufficient to modulate fibrosis in animal models of fibrosis.
Figure 7 4A3COOHmethyl administration and liver fibrosis in a rat CCl4 model of liver fibrosis. […] Mean and standard deviation serum ALT (a); Mean and standard deviation collagen 1A1 mRNA levels (b); typical views of liver sections stained for sirius red, with a 100 μm scale bar (b); quantitative image analysis for fibrosis – data are the mean and standard deviation percentage sirius red staining from at least 4 separate animals in each treatment with at least 10 randomly selected fields examined for each animal (c). […]

[3] = biological target: low affinity glucocorticoid binding site (LAGS) in rat liver microsomes (Rattus norvegicus, UniProt P70580); assay: Competition with radiolabelled dexamethasone for specific binding to rat liver microsomes (LAGS activity); details: read-out: IC50% (competition of substituted progestins for binding to rat liver microsomes); Additional file 1; vs radiolabelled dexamethasone
Method: A small volume of each incubation was removed to determine the total ligand concentration ([L0]) prior to removal of free unbound ligand by dextran/charcoal adsorption. […] Free ligand concentration at equilibrium was calculated by subtracting specifically bound ligand at equilibrium from the total ligand concentration (i.e. [L0] - [LRe]) and assumes receptor-ligand stoichiometry of 1:1.
In brief, rats were anaesthetized with pentobarbital and a 16G cannula inserted into the hepatic portal vein and secured. […] The liver was then excised and chopped roughly with ice-cooled TS buffer (10 mM Tris/HCl pH 7.4 containing 250 mM sucrose) and disrupted using a Potter-Elvehjem homogenisor. The resultant homogenate was then centrifuged at 12,000 g for 20 minutes at 4°C and the supernatant retained and centrifuged at 100,000 g for 60 minutes at 4°C. The resultant "microsomal" pellet was re-suspended in fresh TS buffer and re-centrifuged at 100,000 g to obtain a washed microsomal pellet. […] After overnight incubation on ice, free ligand was removed by charcoal dextran adsorption and bound radioligand determined in supernatants by liquid scintillation, essentially as previously described.

rat HSCs = assay: Rat HSC-to-myofibroblast trans-differentiation (α-smooth muscle actin Western blot); format: cell-based; details: α-sma Western blot after 9 days of treatment
Method: as §1, §2

CYP3A4 = assay: Screening for PXR activators in human hepatocytes via CYP3A induction (Western blot); format: cell-based; details: human

Chain of low affinity glucocorticoid binding site (LAGS) in rat liver microsomes (P70580 2-195): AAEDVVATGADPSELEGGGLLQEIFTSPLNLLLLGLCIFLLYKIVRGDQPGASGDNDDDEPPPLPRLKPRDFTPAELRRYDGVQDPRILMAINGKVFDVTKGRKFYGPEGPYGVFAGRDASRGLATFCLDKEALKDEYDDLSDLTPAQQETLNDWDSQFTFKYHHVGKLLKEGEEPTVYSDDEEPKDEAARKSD

For `COC(=O)[C@H]1CC[C@H]2[C@@H]3CCC4=CC(=O)CC[C@]4(C)[C@H]3CC[C@]12C` [4A3COOHmethyl, 4 androstene-3-one 17β-carboxylic acid methyl ester], the “activity as a PXR activator, rat” value (CYP3A1/3A23) was “no activity”, the “adverse effects (liver serum enzyme levels and liver pathology)” value [1] was “no adverse effects were observed” and the “inhibitory activity on human HSC trans-differentiation” value (human HSCs) was “significant inhibitory activity”. For the same compound, the “expression of TGFβ, TIMP1 and collagen 1A1 mRNAs in human myofibroblasts” value (human myofibroblasts) was “inhibited the expression of all mRNAs”, the “fibrosis severity (α-sma staining, collagen 1a1 mRNA, sirius red staining)” value [2] was “did not significantly affect” and the “serum levels of ALT” value [2] was “did not affect”. For the same compound, the IC50 [3] was 100 nM, the “inhibition of rat HSC trans-differentiation” value (rat HSCs) was “effective” and the “activity as a PXR activator, human” value (CYP3A4) was “no activity”.
